Test results: ChEMBL document CHEMBL1144773, “Neolignans, a coumarinolignan, lignan derivatives, and a chromene: anti-inflammatory constituents from Zanthoxylum avicennae” (J Nat Prod, 2008)

Tests used:
[1] = Antiinflammatory activity in human neutrophils assessed as inhibition of formyl-L-methionyl-L-leucyl-L-phenylalanine/cytochalasin B-induced elastase release; type: functional, cell-based; settings: Neutrophil
[2] = Antiinflammatory activity in human neutrophils assessed as inhibition of formyl-L-methionyl-L-leucyl-L-phenylalanine/cytochalasin B-induced superoxide anion generation; type: functional, cell-based; settings: Neutrophil

Row | Compound | IC50 [1] | IC50 [2]
1 | COc1cc([C@@H]2Oc3c(c(OC)cc4ccc(=O)oc34)O[C@H]2CO)cc(OC)c1OC | > 50 µM | 14.7 µM
2 | COc1cc(/C=C/C(=O)OC[C@H]2[C@@H](Cc3cc(OC)c(O)c(OC)c3)CO[C@@H]2c2cc(OC)c(O)c(OC)c2)ccc1O | > 50 µM | 33.6 µM
3 | CC1(C)C=Cc2cc(/C=C/C=O)ccc2O1 | > 50 µM | > 50 µM
4 | COc1c2c(c3ccc(=O)oc3c1/C=C/C(C)(C)OC)OC(C)(C)C=C2 [AVICENNOL METHYL ETHER] | > 50 µM | 48.4 µM
5 | COc1cc([C@@H]2Oc3c(c(OC)cc4ccc(=O)oc34)O[C@H]2CO)cc(OC)c1O [CLEOMISCOSIN D] | > 50 µM | 13.1 µM
6 | COc1c2ccccc2nc2occc12 [DICTAMNINE] | > 50 µM | > 50 µM
7 | c1ccc2c(c1)[I+]c1ccccc1-2 [DIPHENYLENEIODONIUM] |  | 1.68 µM
8 | COc1cc(=O)[nH]c2c(OC)cccc12 [EDULITINE] | > 50 µM | 38 µM
9 | COc1cc2ccc(=O)oc2c(OC)c1OC [FRAXIDIN METHYL ETHER] | > 50 µM | 49.5 µM
10 | COc1c2ccoc2nc2c(OC)cccc12 [GAMMA-FAGARINE] | > 50 µM | 31.3 µM
11 | Cn1c2ccccc2c(=O)c2ccoc21 [ISODICTAMNINE] | > 50 µM | > 50 µM
12 | COc1c2c(cc3ccc(=O)oc13)C=CC(C)(C)O2 [LUVANGETIN] | > 50 µM | > 50 µM
13 | O=S(=O)(F)Cc1ccccc1 [PHENYLMETHYLSULFONYLFLUORIDE] | 204 µM | 
14 | COc1c2ccoc2nc2c(O)cccc12 [ROBUSTINE] | > 50 µM | 18.2 µM
15 | COc1cc2ccc(=O)oc2cc1OC [SCOPARONE] | > 50 µM | 42.9 µM
16 | COc1cc2ccc(=O)oc2cc1O [SCOPOLETIN] | > 50 µM | > 50 µM

Second part, the compound after the results:

Row | IC50 [1] | IC50 [2] | Compound
17 | > 50 µM | 26.9 µM | COc1cc([C@@H]2Oc3cc(/C=C/C=O)ccc3O[C@H]2CO)cc(OC)c1O
18 | > 50 µM | > 50 µM | COc1cc([C@@H]2Oc3cc(/C=C/C=O)cc(O)c3O[C@H]2CO)cc(OC)c1OC
19 | 28.9 µM | 28 µM | COc1cc(/C=C\C(=O)OC[C@H]2[C@@H](Cc3cc(OC)c(O)c(OC)c3)CO[C@@H]2c2cc(OC)c(O)c(OC)c2)ccc1O
20 | > 50 µM | > 50 µM | COc1cc([C@@H]2Oc3cc(/C=C/C=O)cc(OC)c3O[C@H]2CO)ccc1O
21 | > 50 µM | 48.6 µM | COc1cc([C@@H]2Oc3cc(/C=C/C=O)cc(OC)c3O[C@H]2CO)cc(OC)c1O
22 | > 50 µM | > 50 µM | COc1cc(=O)n(C)c2ccccc12
23 | > 50 µM | 39.9 µM | COc1cc([C@@H]2OC[C@@H]3[C@H]2CO[C@H]3c2cc(OC)c(O)c(OC)c2)cc(OC)c1O
24 | 32 µM | > 50 µM | COc1c2c(c3ccc(=O)oc3c1/C=C/C(C)(C)O)OC(C)(C)C=C2 [AVICENNOL]
25 | 19.2 µM | 13.2 µM | COc1ccc2c(OC)c3ccoc3nc2c1OC [SKIMMIANINE]
